PubChem BioAssay AID1924 (Vanderbilt High Throughput Screening Facility, 2009)

Tested on: Vesicular inhibitory amino acid transporter (Rattus norvegicus) + Acetylcholine receptor subunit alpha (Homo sapiens) + Estrogen receptor (Homo sapiens) + Glucocorticoid receptor (Homo sapiens) + Sodium channel protein type 1 subunit alpha (Rattus norvegicus) + Beta-2 adrenergic receptor (Homo sapiens) + Muscarinic acetylcholine receptor M2 (Homo sapiens) + Beta-1 adrenergic receptor (Homo sapiens) + 5-hydroxytryptamine receptor 1A (Homo sapiens) + Alpha-2A adrenergic receptor (Homo sapiens) + Muscarinic acetylcholine receptor M1 (Homo sapiens) + Interleukin-1 receptor type 1 (Mus musculus) + D(2) dopamine receptor (Homo sapiens) + Androgen receptor (Rattus norvegicus) + Gamma-aminobutyric acid receptor subunit gamma-2 (Rattus norvegicus) + Muscarinic acetylcholine receptor M3 (Homo sapiens) + D(1A) dopamine receptor (Homo sapiens) + D(4) dopamine receptor (Homo sapiens) + Glutamate receptor ionotropic, kainate 1 (Rattus norvegicus) + Sodium-dependent noradrenaline transporter (Homo sapiens) + Endothelin receptor type B (Homo sapiens) + Alpha-1D adrenergic receptor (Homo sapiens) + Endothelin-1 receptor (Homo sapiens) + Substance-P receptor (Homo sapiens) + Neuropeptide Y receptor type 1 (Homo sapiens) + Adenosine receptor A2a (Homo sapiens) + B2 bradykinin receptor (Homo sapiens) + Adenosine receptor A1 (Homo sapiens) + Sodium-dependent serotonin transporter (Homo sapiens) + Neuronal acetylcholine receptor subunit alpha-3 (Homo sapiens) + Histamine H1 receptor (Homo …
Assay: broad ancillary panel percent inhibition – biochemical, MDS panel, selectivity assay for ROMK channel modulator project, profiling panel (AID 1924)
Conditions: MDS Pharma lead profiling binding panel, at 10 µM, stronger effect = higher value

O=[N+]([O-])c1ccc2nc(COCc3nc4ccc([N+](=O)[O-])cc4[nH]3)[nH]c2c1
inhibition: 75%
inhibition (measured here: Adenosine A1 human binding): 14%
inhibition (measured here: Adenosine A3 human binding): 21%
inhibition (measured here: Adrenergic a2A human binding): 14%
inhibition (measured here: Adrenergic b2 human binding): 9%
inhibition (measured here: Bradykinin B2 human binding): -16%
inhibition (measured here: Calcium channel L-type BTZ rat): 22%
inhibition (measured here: Calcium channel L-type DHP rat): 26%
inhibition (measured here: Calcium channel N-type rat): 0%
inhibition (measured here: Dopamine D1 human binding): -2%
inhibition (measured here: Dopamine D2S human binding): -6%
inhibition (measured here: Dopamine D3 human binding): 1%
inhibition (measured here: Estrogen ER alpha human binding): 1%
